# Laboratory results as given in ChEMBL document CHEMBL4334536, “PROTAC-Mediated Degradation of KRAS Protein for Anticancer Therapeutics” (ACS Med Chem Lett, 2020).
# Tests used:
# Assay type in all cases: cell-based
# NCI-H2030 [G12C] [1] = experiment: Protac activity at E3 ubiquitin ligase/KRAS G12C mutant in human NCI-H2030 cells assessed as maximal KRAS degradation at 0.3 uM after 24 hrs by Western blot analysis relative to control
# NCI-H2030 [G12C] [2] = experiment: Protac activity at E3 ubiquitin ligase/KRAS G12C mutant in human NCI-H2030 cells assessed as maximal KRAS degradation at 1 uM after 24 hrs by Western blot analysis relative to control
# NCI-H2030 [G12C] [3] = experiment: Protac activity at E3 ubiquitin ligase/KRAS G12C mutant in human NCI-H2030 cells assessed as maximal KRAS degradation at 3 uM after 24 hrs by Western blot analysis relative to control
# Sequence of NCI-H2030 [G12C] (as listed by the source, stated change not applied): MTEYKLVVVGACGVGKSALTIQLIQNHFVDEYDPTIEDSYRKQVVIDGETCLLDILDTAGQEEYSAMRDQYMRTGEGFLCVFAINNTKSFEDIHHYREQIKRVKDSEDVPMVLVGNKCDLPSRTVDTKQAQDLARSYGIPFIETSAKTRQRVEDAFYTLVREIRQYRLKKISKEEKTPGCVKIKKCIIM
structure (smiles),measurement,setting,value
CCC(=O)N1CCN(c2nc(NCCC(=O)N(C)CCOCCOCCOCCOCCOc3ccc4c(c3)CN(C3CCC(=O)NC3=O)C4=O)nc3c(F)c(-c4cc(O)cc5ccccc45)c(Cl)cc23)CC1 (stereo not drawn),Emax,NCI-H2030 [G12C] [1],< 25%
same,Emax,NCI-H2030 [G12C] [2],25 to 50%
same,Emax,NCI-H2030 [G12C] [3],25 to 50%
CCC(=O)N1CCN(c2nc(NCCC(=O)N(C)CCOCCOCCOCCOCC(=O)N[C@H](C(=O)N3C[C@H](O)C[C@H]3C(=O)N[C@@H](C)c3ccc(-c4scnc4C)cc3)C(C)(C)C)nc3c(F)c(-c4cc(O)cc5ccccc45)c(Cl)cc23)CC1,Emax,NCI-H2030 [G12C] [1],< 25%
same,Emax,NCI-H2030 [G12C] [2],< 25%
same,Emax,NCI-H2030 [G12C] [3],< 25%
C=CC(=O)N1CCN(c2nc(NCCC(=O)N(C)CCOCCOCCOCCNc3cccc4c3C(=O)N(C3CCC(=O)NC3=O)C4=O)nc3c(F)c(-c4cc(O)cc5ccccc45)c(Cl)cc23)CC1 (stereo not drawn),Emax,NCI-H2030 [G12C] [1],< 25%
same,Emax,NCI-H2030 [G12C] [2],25 to 50%
same,Emax,NCI-H2030 [G12C] [3],25 to 50%
C=CC(=O)N1CCN(c2nc(NCCC(=O)N(C)CCOCCOCCOCC(=O)N[C@H](C(=O)N3C[C@H](O)C[C@H]3C(=O)N[C@@H](C)c3ccc(-c4scnc4C)cc3)C(C)(C)C)nc3c(F)c(-c4cc(O)cc5ccccc45)c(Cl)cc23)CC1,Emax,NCI-H2030 [G12C] [1],< 25%
same,Emax,NCI-H2030 [G12C] [2],25 to 50%
same,Emax,NCI-H2030 [G12C] [3],25 to 50%
C=CC(=O)N1CCN(c2nc(NCCC(=O)N(C)CCOCCOCCOCCOCCOCC(=O)N[C@H](C(=O)N3C[C@H](O)C[C@H]3C(=O)N[C@@H](C)c3ccc(-c4scnc4C)cc3)C(C)(C)C)nc3c(F)c(-c4cc(O)cc5ccccc45)c(Cl)cc23)CC1,Emax,NCI-H2030 [G12C] [1],< 25%
same,Emax,NCI-H2030 [G12C] [2],> 50%
same,Emax,NCI-H2030 [G12C] [3],> 50%
C=CC(=O)N1CCN(c2nc(NCCC(=O)N(C)CCOCCOCCOCCOCC(=O)N[C@H](C(=O)N3C[C@H](O)C[C@H]3C(=O)N[C@@H](C)c3ccc(-c4scnc4C)cc3)C(C)(C)C)nc3c(F)c(-c4cc(O)cc5ccccc45)c(Cl)cc23)CC1,Emax,NCI-H2030 [G12C] [1],< 25%
same,Emax,NCI-H2030 [G12C] [2],> 50%
same,Emax,NCI-H2030 [G12C] [3],> 50%
